# Measurements reported in patent publication US5283255A, “Wavelength-specific cytotoxic agents” (The University of British Columbia, priority 1992, dated 1994).
# Read-outs that look alike come from different tables or passages of the source.
# How the values were obtained:
# tumor and normal tissues = details: mouse, in vivo
# Text: Biodistribution studies have been conducted using tritiated BPD-MA and BPD-MB.
# M-1 rhabdomycoscercoma = assay: In vivo photosensitization, M-1 rhabdomyosarcoma system in DBA/J2 mice
# Method: Studies of potential photosensitizers were performed using the M-1 rhabdomycoscercoma system in DBA/J2 mice. The compositions to be tested were diluted to a concentration of […] in PBS from a stock solution in DMSO at 8 mg/ml (except Photofrin® II, which was diluted directly from the clinical vial). […]
smiles,measurement,setting,value
C=Cc1c(C)c2cc3nc(cc4[nH]c(cc5nc(cc1[nH]2)C(C)=C5CCC(=O)O)c(CCC(=O)OC)c4C)C1(C)C3=CC=C(C(=O)OC)C1C(=O)OC (centres unmarked) [^3 H-BPD-MA],ratio of concentration in tumor to Blood,tumor and normal tissues; 180 min,0.52
same,ratio of concentration in tumor to Brain,tumor and normal tissues; 180 min,3.76
same,ratio of concentration in tumor to Heart,tumor and normal tissues; 180 min,1.09
same,ratio of concentration in tumor to Intestine,tumor and normal tissues; 180 min,2.42
same,ratio of concentration in tumor to Lung,tumor and normal tissues; 180 min,0.79
same,ratio of concentration in tumor to Muscle,tumor and normal tissues; 180 min,2.68
same,ratio of concentration in tumor to Skin,tumor and normal tissues; 180 min,2.57
same,ratio of concentration in tumor to Stomach,tumor and normal tissues; 180 min,1.57
same,ratio of concentration in tumor to Blood,tumor and normal tissues; 1440 min,1.45
same,ratio of concentration in tumor to Brain,tumor and normal tissues; 1440 min,3.06
same,ratio of concentration in tumor to Heart,tumor and normal tissues; 1440 min,1.71
same,ratio of concentration in tumor to Intestine,tumor and normal tissues; 1440 min,1.85
same,ratio of concentration in tumor to Lung,tumor and normal tissues; 1440 min,1.55
same,ratio of concentration in tumor to Muscle,tumor and normal tissues; 1440 min,2.98
same,ratio of concentration in tumor to Skin,tumor and normal tissues; 1440 min,1.64
same,ratio of concentration in tumor to Stomach,tumor and normal tissues; 1440 min,1.89
same,ratio of concentration in tumor to Blood,tumor and normal tissues; 2880 min,1.37
same,ratio of concentration in tumor to Brain,tumor and normal tissues; 2880 min,2.92
same,ratio of concentration in tumor to Heart,tumor and normal tissues; 2880 min,1.63
same,ratio of concentration in tumor to Intestine,tumor and normal tissues; 2880 min,1.88
same,ratio of concentration in tumor to Lung,tumor and normal tissues; 2880 min,1.47
same,ratio of concentration in tumor to Muscle,tumor and normal tissues; 2880 min,2.77
same,ratio of concentration in tumor to Skin,tumor and normal tissues; 2880 min,1.95
same,ratio of concentration in tumor to Stomach,tumor and normal tissues; 2880 min,2.08
same,ratio of concentration in tumor to Blood,tumor and normal tissues; 4320 min,1.66
same,ratio of concentration in tumor to Brain,tumor and normal tissues; 4320 min,2.69
same,ratio of concentration in tumor to Heart,tumor and normal tissues; 4320 min,1.46
same,ratio of concentration in tumor to Intestine,tumor and normal tissues; 4320 min,1.48
same,ratio of concentration in tumor to Lung,tumor and normal tissues; 4320 min,1.16
same,ratio of concentration in tumor to Muscle,tumor and normal tissues; 4320 min,2.16
same,ratio of concentration in tumor to Skin,tumor and normal tissues; 4320 min,1.57
same,ratio of concentration in tumor to Stomach,tumor and normal tissues; 4320 min,2.04
same,ratio of concentration in tumor to Blood,tumor and normal tissues; 5760 min,2.77
same,ratio of concentration in tumor to Brain,tumor and normal tissues; 5760 min,4.18
same,ratio of concentration in tumor to Heart,tumor and normal tissues; 5760 min,2.24
same,ratio of concentration in tumor to Intestine,tumor and normal tissues; 5760 min,3.29
same,ratio of concentration in tumor to Lung,tumor and normal tissues; 5760 min,1.63
same,ratio of concentration in tumor to Muscle,tumor and normal tissues; 5760 min,3.45
same,ratio of concentration in tumor to Skin,tumor and normal tissues; 5760 min,2.03
same,ratio of concentration in tumor to Stomach,tumor and normal tissues; 5760 min,2.23
same,ratio of concentration in tumor to Blood,tumor and normal tissues; 10080 min,3.65
same,ratio of concentration in tumor to Brain,tumor and normal tissues; 10080 min,6.91
same,ratio of concentration in tumor to Heart,tumor and normal tissues; 10080 min,2.51
same,ratio of concentration in tumor to Intestine,tumor and normal tissues; 10080 min,2.23
same,ratio of concentration in tumor to Lung,tumor and normal tissues; 10080 min,1.79
same,ratio of concentration in tumor to Muscle,tumor and normal tissues; 10080 min,4.23
same,ratio of concentration in tumor to Skin,tumor and normal tissues; 10080 min,3.51
same,ratio of concentration in tumor to Stomach,tumor and normal tissues; 10080 min,2.98
same,"Tumor skin ratios, most favorable time",tumor and normal tissues; iv,most favorable 3 hours after IV administration
C=Cc1c(C)c2cc3nc(cc4[nH]c(cc5nc(cc1[nH]2)C1(C)C5=CC=C(C(=O)OC)C1C(=O)OC)c(C)c4CCC(=O)O)C(CCC(=O)O)=C3C (centres unmarked) [BPD-DB],Number of Days Tumor Free (PR),"M-1 rhabdomycoscercoma; Table 6, 567 Jo/cm^2, IV 24 h before light",10.6 days
same,Cures (tumor regressed and tumor-free for 30 days),"M-1 rhabdomycoscercoma; Table 6, 567 Jo/cm^2, 8 animals per group",3
same,Days Tumor-free,"M-1 rhabdomycoscercoma; Table 7, light dose 378 To/cm^3",13.0 days
same,Number of Cures,"M-1 rhabdomycoscercoma; Table 7, light dose 378 To/cm^3, 9-15 animals",8
